Values after ≈ are worked out from the molar mass of the structure shown. Where two headings read alike, the source gives them in different places.
Experiments:
Botrtyis cinerea (Bc) = test: Growth inhibition assay of fungal pathogens, Bc; assay type: cell-based; details: 48 h
In short: (§1)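 Spore suspension in 17% V8 liquid media; cpd final 50/10/2 or 2/0.4/0.08 ppm, 2% DMSO. OD600 + visual, 24 & 48 h; % inhibition at 48 h vs 2% DMSO ctrl.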

C. albicans = test: Antifungal Activity Assay (broth microtiter MIC), C. albicans; assay type: cell-based, Candida albicans; details: Candida albicans, ATCC90028, 48 h
In short: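 Endpoint: lowest concentration visibly inhibiting growth relative to control after 48 h. Inoculum of 2.5×10^3 CFU/mL final in RPMI 1640+MOPS, prepared from overnight 35° C agar cultures; test compounds diluted in water to 128 μg/mL before plating.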

Diplodia maydis (Dm) = test: Growth inhibition assay of fungal pathogens, Dm; assay type: cell-based; details: Stenocarpella maydis, 48 h
In short: as §1

[1] = Botrtyis cinerea, growth inhibition at 48 hours vs 2% DMSO control, read-out: Concentration at 90% Inhibition Bc
[2] = Botrtyis cinerea, growth inhibition vs 2% DMSO control at 48 hours, read-out: Concentration at 90% Inhibition Bc
[3] = Table 3a, ATCC 90028, 3 replicates, MIC recorded at 48 h, read-out: MIC, C. albicans ATCC 90028
[4] = Table 3b (additional results), ATCC 90028, 3 replicates, MIC recorded at 48 h, read-out: MIC, C. albicans ATCC 90028
[5] = Diplodia maydis, growth inhibition at 48 hours vs 2% DMSO control, read-out: Concentration at 90% Inhibition Dm
[6] = Diplodia maydis, growth inhibition vs 2% DMSO control at 48 hours, read-out: Concentration at 90% Inhibition Dm
[7] = read-out: Concentration at 90% Inhibition Bc, Botrtyis cinerea, growth inhibition at 48 hours vs 2% DMSO control
[8] = read-out: Concentration at 90% Inhibition Bc, Botrtyis cinerea, growth inhibition vs 2% DMSO control at 48 hours
[9] = read-out: MIC, C. albicans ATCC 90028, Table 3a, 3 replicates, MIC recorded at 48 h
[10] = read-out: MIC, C. albicans ATCC 90028, Table 3b (additional results), 3 replicates, MIC recorded at 48 h
[11] = read-out: Concentration at 90% Inhibition Dm, Diplodia maydis, growth inhibition at 48 hours vs 2% DMSO control
[12] = read-out: Concentration at 90% Inhibition Dm, Diplodia maydis, growth inhibition vs 2% DMSO control at 48 hours

Compound	IC90 (Botrtyis cinerea (Bc); [1])	IC90 (Botrtyis cinerea (Bc); [2])	MIC (C. albicans; [3])	MIC (C. albicans; [4])	IC90 (Diplodia maydis (Dm); [5])	IC90 (Diplodia maydis (Dm); [6])	IC90 (Botrtyis cinerea (Bc); [7])	IC90 (Botrtyis cinerea (Bc); [8])	MIC (C. albicans; [9])	MIC (C. albicans; [10])	IC90 (Diplodia maydis (Dm); [11])	IC90 (Diplodia maydis (Dm); [12])
COc1ccc(F)cc1[C@H](Cn1c(=O)n(C(C)(C)C(=O)N2CCCC2)c(=O)c2c(C)c(-n3nccn3)sc21)OC[C@@H](C)O [Compound I-46, 1-((R)-2-(5-fluoro-2-methoxyphenyl)-2-((R)-2-hydroxypropoxy)ethyl)-5-methyl-3-(2-methyl-1-oxo-1-(pyrrolidin-1-yl)propan-2-yl)-6-(2H-1,2,3-triazol-2-yl)thieno[2,3-d]pyrimidine-2,4(1H,3H)-dione]	2 µg/mL (≈ 3.25 µM)	2 µg/mL (≈ 3.25 µM)	0.25 to 1 µg/mL (≈ 0.407 to 1.63 µM)	0.25 to 1 µg/mL (≈ 0.407 to 1.63 µM)	2 µg/mL (≈ 3.25 µM)	2 µg/mL (≈ 3.25 µM)	–	–	–	–	–	–
COc1ccc(F)cc1[C@H](Cn1c(=O)n(C(C)(C)C(=O)N2CC(O)C2)c(=O)c2c(C)c(-n3nccn3)sc21)OC1CCOCC1 [Compound I-26, (R)-1-(2-(5-fluoro-2-methoxyphenyl)-2-((tetrahydro-2H-pyran-4-yl)oxy)ethyl)-3-(1-(3-hydroxyazetidin-1-yl)-2-methyl-1-oxopropan-2-yl)-5-methyl-6-(2H-1,2,3-triazol-2-yl)thieno[2,3-d]pyrimidine-2,4(1H,3H)-dione]	2 µg/mL (≈ 3.11 µM)	2 µg/mL (≈ 3.11 µM)	2.1 to 4 µg/mL (≈ 3.27 to 6.22 µM)	1.01 to 2 µg/mL (≈ 1.57 to 3.11 µM)	10 µg/mL (≈ 15.6 µM)	> 50 µg/mL	–	–	–	–	–	–
COCCCO[C@@H](Cn1c(=O)n([C@@H](C)C(=O)NC(C)C)c(=O)c2c(C)c(-n3nccn3)sc21)c1cc(F)ccc1OC [Compound I-86, (S)-2-(1-((R)-2-(5-fluoro-2-methoxyphenyl)-2-(3-methoxy-propoxy)ethyl)-5-methyl-2,4-dioxo-6-(2H-1,2,3-triazol-2-yl)-1,4-dihydrothieno[2,3-d]pyrimidin-3(2H)-yl)-N-isopropylpropanamide]	–	–	–	–	–	–	0.4 µg/mL (≈ 0.664 µM)	0.4 µg/mL (≈ 0.664 µM)	2.1 to 4 µg/mL (≈ 3.48 to 6.64 µM)	2.01 to 4 µg/mL (≈ 3.34 to 6.64 µM)	2 µg/mL (≈ 3.32 µM)	2 µg/mL (≈ 3.32 µM)
COCCOc1ccc(F)cc1[C@H](Cn1c(=O)n(C(C)(C)C(=O)NC(C)C)c(=O)c2c(C)c(-n3nccn3)sc21)OC(C)C [Compound I-54, (R)-2-(1-(2-(5-fluoro-2-(2-methoxyethoxy)phenyl)-2-isopropoxyethyl)-5-methyl-2,4-dioxo-6-(2H-1,2,3-triazol-2-yl)-1,4-dihydrothieno[2,3-d]pyrimidin-3(2H)-yl)-N-isopropyl-2-methylpropanamide]	0.4 µg/mL (≈ 0.634 µM)	0.4 µg/mL (≈ 0.634 µM)	0.25 to 1 µg/mL (≈ 0.396 to 1.59 µM)	0.25 to 1 µg/mL (≈ 0.396 to 1.59 µM)	0.08 µg/mL (≈ 0.127 µM)	0.08 µg/mL (≈ 0.127 µM)	–	–	–	–	–	–
CCNC(=O)C(C)(C)n1c(=O)c2c(C)c(-n3nccn3)sc2n(C[C@H](OCC(C)C)c2cc(F)ccc2OC)c1=O [Compound I-9, (R)—N-ethyl-2-(1-(2-(5-fluoro-2-methoxyphenyl)-2-isobutoxyethyl)-5-methyl-2,4-dioxo-6-(2H-1,2,3-triazol-2-yl)-1,4-dihydrothieno[2,3-d]pyrimidin-3(2H)-yl)-2-methylpropanamide]	0.4 µg/mL (≈ 0.682 µM)	0.4 µg/mL (≈ 0.682 µM)	2.1 to 4 µg/mL (≈ 3.58 to 6.82 µM)	1.01 to 2 µg/mL (≈ 1.72 to 3.41 µM)	0.4 µg/mL (≈ 0.682 µM)	0.4 µg/mL (≈ 0.682 µM)	–	–	–	–	–	–
COc1ccc(F)cc1[C@H](Cn1c(=O)n(CC(=O)NC(C)C)c(=O)c2c(C)c(-n3nccn3)sc21)OCCO [Compound I-82, (R)-2-(1-(2-(5-fluoro-2-methoxyphenyl)-2-(2-hydroxy-ethoxy)ethyl)-5-methyl-2,4-dioxo-6-(2H-1,2,3-triazol-2-yl)-1,4-dihydro-thieno[2,3-d]pyrimidin-3(2H)-yl)-N-isopropylacetamide]	–	–	–	–	–	–	2 µg/mL (≈ 3.57 µM)	2 µg/mL (≈ 3.57 µM)	2.1 to 4 µg/mL (≈ 3.75 to 7.14 µM)	2.01 to 4 µg/mL (≈ 3.59 to 7.14 µM)	> 50 µg/mL	> 50 µg/mL
COc1ccc(F)cc1[C@H](Cn1c(=O)n(C(C)(C)C(=O)NCC#N)c(=O)c2c(C)c(-n3nccn3)sc21)OC(C)C [Compound I-52, (R)—N-(cyanomethyl)-2-(1-(2-(5-fluoro-2-methoxyphenyl)-2-isopropoxyethyl)-5-methyl-2,4-dioxo-6-(2H-1,2,3-triazol-2-yl)-1,4-dihydro-thieno[2,3-d]pyrimidin-3(2H)-yl)-2-methylpropanamide]	–	–	–	–	–	–	2 µg/mL (≈ 3.43 µM)	2 µg/mL (≈ 3.43 µM)	2.1 to 4 µg/mL (≈ 3.6 to 6.85 µM)	1.01 to 2 µg/mL (≈ 1.73 to 3.43 µM)	10 µg/mL (≈ 17.1 µM)	> 50 µg/mL
COc1ccc(F)cc1[C@H](Cn1c(=O)n(C(C)(C)C(=O)N2CCCC2)c(=O)c2c(C)c(-n3nccn3)sc21)OC[C@H](C)O [Compound I-48, 1-((R)-2-(5-fluoro-2-methoxyphenyl)-2-((S)-2-hydroxy-propoxy)ethyl)-5-methyl-3-(2-methyl-1-oxo-1-(pyrrolidin-1-yl)propan-2-yl)-6-(2H-1,2,3-triazol-2-yl)thieno[2,3-d]pyrimidine-2,4(1H,3H)-dione]	2 µg/mL (≈ 3.25 µM)	2 µg/mL (≈ 3.25 µM)	1.1 to 2 µg/mL (≈ 1.79 to 3.25 µM)	0.25 to 1 µg/mL (≈ 0.407 to 1.63 µM)	2 µg/mL (≈ 3.25 µM)	2 µg/mL (≈ 3.25 µM)	–	–	–	–	–	–
COc1ccc(F)cc1[C@H](Cn1c(=O)n(C(C)(C)C(=O)N2CC=CC2)c(=O)c2c(C)c(-n3nccn3)sc21)OC1CCOCC1 [Compound I-62, (R)-3-(1-(2,5-dihydro-1H-pyrrol-1-yl)-2-methyl-1-oxopro-pan-2-yl)-1-(2-(5-fluoro-2-methoxyphenyl)-2-((tetrahydro-2H-pyran-4-yl)oxy)ethyl)-5-methyl-6-(2H-1,2,3-triazol-2-yl)thieno[2,3-d]pyrimidine-2,4(1H,3H)-dione]	2 µg/mL (≈ 3.13 µM)	2 µg/mL (≈ 3.13 µM)	0.25 to 1 µg/mL (≈ 0.391 to 1.57 µM)	0.25 to 1 µg/mL (≈ 0.391 to 1.57 µM)	0.4 µg/mL (≈ 0.626 µM)	0.4 µg/mL (≈ 0.626 µM)	–	–	–	–	–	–
COc1ccccc1[C@H](Cn1c(=O)n(C(C)(C)C(N)=O)c(=O)c2c(C)c(-n3nccn3)sc21)OC1CCOCC1 [Compound I-14, (R)-2-(1-(2-(2-methoxyphenyl)-2-((tetrahydro-2H-pyran-4-yl)oxy)ethyl)-5-methyl-2,4-dioxo-6-(2H-1,2,3-triazol-2-yl)-1,4-dihydrothieno[2,3-d]pyrimidin-3(2H)-yl)-2-methylpropanamide]	2 µg/mL (≈ 3.52 µM)	2 µg/mL (≈ 3.52 µM)	0.25 to 1 µg/mL (≈ 0.44 to 1.76 µM)	0.25 to 1 µg/mL (≈ 0.44 to 1.76 µM)	10 µg/mL (≈ 17.6 µM)	> 50 µg/mL	–	–	–	–	–	–
COc1ccc(F)cc1[C@H](Cn1c(=O)n(C(C)(C)C(=O)NC(C)C)c(=O)c2c(C)c(-n3nccn3)sc21)OC[C@@H](C)O [Compound I-45, 2-(1-((R)-2-(5-fluoro-2-methoxyphenyl)-2-((R)-2-hydroxypropoxy)ethyl)-5-methyl-2,4-dioxo-6-(2H-1,2,3-triazol-2-yl)-1,4-dihydro-thieno[2,3-d]pyrimidin-3(2H)-yl)-N-isopropyl-2-methylpropanamide]	–	–	–	–	–	–	2 µg/mL (≈ 3.32 µM)	2 µg/mL (≈ 3.32 µM)	0.25 to 1 µg/mL (≈ 0.415 to 1.66 µM)	0.25 to 1 µg/mL (≈ 0.415 to 1.66 µM)	0.4 µg/mL (≈ 0.664 µM)	0.4 µg/mL (≈ 0.664 µM)
C=CCNC(=O)C(C)(C)n1c(=O)c2c(C)c(-n3nccn3)sc2n(C[C@H](OC2CCOCC2)c2cc(F)ccc2OC)c1=O [Compound I-70, (R)—N-allyl-2-(1-(2-(5-fluoro-2-methoxyphenyl)-2-((tetrahydro-2H-pyran-4-yl)oxy)ethyl)-5-methyl-2,4-dioxo-6-(2H-1,2,3-triazol-2-yl)-1,4-dihydrothieno[2,3-d]pyrimidin-3(2H)-yl)-2-methylpropanamide]	–	–	–	–	–	–	2 µg/mL (≈ 3.19 µM)	2 µg/mL (≈ 3.19 µM)	0.25 to 1 µg/mL (≈ 0.399 to 1.6 µM)	0.25 to 1 µg/mL (≈ 0.399 to 1.6 µM)	2 µg/mL (≈ 3.19 µM)	2 µg/mL (≈ 3.19 µM)
COc1ccc(F)cc1[C@H](Cn1c(=O)n(C(C)(C)C(=O)N(C)C)c(=O)c2c(C)c(-n3nccn3)sc21)OC(C)C [Compound I-49, (R)-2-(1-(2-(5-fluoro-2-methoxyphenyl)-2-isopropoxy-ethyl)-5-methyl-2,4-dioxo-6-(2H-1,2,3-triazol-2-yl)-1,4-dihydrothieno[2,3-d]pyrimi-din-3(2H)-yl)-N,N,2-trimethylpropanamide]	–	–	–	–	–	–	0.4 µg/mL (≈ 0.698 µM)	0.4 µg/mL (≈ 0.698 µM)	2.1 to 4 µg/mL (≈ 3.67 to 6.98 µM)	1.01 to 2 µg/mL (≈ 1.76 to 3.49 µM)	2 µg/mL (≈ 3.49 µM)	2 µg/mL (≈ 3.49 µM)
Cc1c(-n2nccn2)sc2c1c(=O)n(C(C)(C)C(=O)NC(C)C)c(=O)n2C[C@H](OC(C)C)c1cc(F)ccc1OCC#N [Compound I-56, (R)-2-(1-(2-(2-(cyanomethoxy)-5-fluorophenyl)-2-isopropoxyethyl)-5-methyl-2,4-dioxo-6-(2H-1,2,3-triazol-2-yl)-1,4-dihydrothieno[2,3-d]pyrimidin-3(2H)-yl)-N-isopropyl-2-methylpropanamide]	–	–	–	–	–	–	0.4 µg/mL (≈ 0.654 µM)	0.4 µg/mL (≈ 0.654 µM)	0.25 to 1 µg/mL (≈ 0.409 to 1.63 µM)	1.01 to 2 µg/mL (≈ 1.65 to 3.27 µM)	0.4 µg/mL (≈ 0.654 µM)	0.4 µg/mL (≈ 0.654 µM)
